Reference: the NIST ThermoML archive (doi:10.1016/j.jct.2018.02.022)
“And” between values parts separate entries of the source, which are not always exact repeats. Identical values can stand only once. Numbers after ± are expanded uncertainties.

Test: xn = mol fraction of the nth substance listed
Conditions: 293.15 K, 92.3 kPa, Liquid; for viscosity: Concentric cylinders viscometry; for speed of sound: Frequency=3 MHz, Single path-length method; for mass density: Vibrating tube method

CCO [ethanol] + O
Conditions | mass density | speed of sound [m/s] | viscosity [mPa·s]
x1 = 0.0024 | 997.039 ± 3 kg/m3 | 1487.7 ± 1.8 | –
x1 = 0.0201 | 989.54 ± 3.2 kg/m3 | – | 1.247 ± 0.17
x1 = 0.0202 | 989.382 ± 3.2 kg/m3 | 1522.5 ± 1.8 | –
x1 = 0.0295 | 985.977 ± 3.2 kg/m3 | 1540 ± 1.8 | –
x1 = 0.0366 | 983.574 ± 3.2 kg/m3 | 1553 ± 1.8 | –
x1 = 0.0408 | 982.27 ± 3.2 kg/m3 | – | 1.529 ± 0.21
x1 = 0.0497 | 979.54 ± 3.2 kg/m3 | – | 1.648 ± 0.23
x1 = 0.0513 | 978.913 ± 3.2 kg/m3 | 1578 ± 1.8 | –
x1 = 0.06 | 976.51 ± 3.2 kg/m3 and 976.452 ± 3.2 kg/m3 | 1590.8 ± 1.8 | 1.821 ± 0.26
x1 = 0.0707 | 973.538 ± 3.2 kg/m3 | 1604.2 ± 1.8 | –
x1 = 0.0796 | 971.24 ± 3.2 kg/m3 | – | 2.045 ± 0.29
x1 = 0.0801 | 971.049 ± 3.2 kg/m3 | 1613.8 ± 1.8 | –
x1 = 0.0904 | 968.313 ± 3.2 kg/m3 | 1621.5 ± 1.8 | –
x1 = 0.0997 | 965.87 ± 3.2 kg/m3 | 1625.7 ± 1.8 | –
x1 = 0.1004 | 963.75 ± 3.2 kg/m3 | – | 2.311 ± 0.32
x1 = 0.1294 | 957.918 ± 3.2 kg/m3 | 1623.8 ± 1.8 | –
x1 = 0.1497 | 952.184 ± 3.2 kg/m3 | 1611.9 ± 1.8 | –
x1 = 0.1499 | 951.92 ± 3.2 kg/m3 | – | 2.72 ± 0.38
x1 = 0.1984 | 935.19 ± 3.2 kg/m3 | – | 2.857 ± 0.4
x1 = 0.2008 | 937.088 ± 3.2 kg/m3 | 1566.6 ± 1.8 | –
x1 = 0.2499 | 922.7 ± 3.2 kg/m3 | – | 2.864 ± 0.4
x1 = 0.2503 | 922.612 ± 3.2 kg/m3 | 1520.2 ± 1.8 | –
x1 = 0.2998 | 908.897 ± 3.2 kg/m3 | 1478.2 ± 1.8 | –
x1 = 0.3016 | 908.77 ± 3.2 kg/m3 | – | 2.793 ± 0.39
x1 = 0.3499 | 896.37 ± 3.2 kg/m3 | – | 2.681 ± 0.38
x1 = 0.3507 | 895.841 ± 3.2 kg/m3 | 1440.4 ± 1.8 | –
x1 = 0.399 | 884.54 ± 3.2 kg/m3 | – | 2.55 ± 0.36
x1 = 0.3992 | 884.433 ± 3.2 kg/m3 | 1408.9 ± 1.8 | –
x1 = 0.4495 | 873.57 ± 3.2 kg/m3 | – | 2.405 ± 0.34
x1 = 0.4514 | 873.258 ± 3.2 kg/m3 | 1379 ± 1.8 | –
x1 = 0.4989 | 864.28 ± 3.2 kg/m3 | – | 2.291 ± 0.32
x1 = 0.5002 | 863.248 ± 3.2 kg/m3 | 1353.5 ± 1.8 | –
x1 = 0.5494 | 854.117 ± 3.2 kg/m3 | 1330.4 ± 1.8 | –
x1 = 0.5495 | 854.95 ± 3.2 kg/m3 | – | 2.177 ± 0.3
x1 = 0.6018 | 845.002 ± 3.2 kg/m3 | 1307.8 ± 1.8 | –
x1 = 0.6067 | 844.7 ± 3.2 kg/m3 | – | 1.997 ± 0.28
x1 = 0.6503 | 837.27 ± 3.2 kg/m3 and 837.196 ± 3.2 kg/m3 | 1288.5 ± 1.8 | 1.895 ± 0.27
x1 = 0.6956 | 830.42 ± 3.2 kg/m3 | – | 1.788 ± 0.25
x1 = 0.7006 | 829.434 ± 3.2 kg/m3 | 1269.1 ± 1.8 | –
x1 = 0.7355 | 824.262 ± 3.2 kg/m3 | 1256 ± 1.8 | –
x1 = 0.75 | 822.4 ± 3.2 kg/m3 | – | 1.68 ± 0.24
x1 = 0.7843 | 817.86 ± 3.2 kg/m3 | – | 1.612 ± 0.23
x1 = 0.7965 | 815.831 ± 3.2 kg/m3 | 1234.1 ± 1.8 | –
x1 = 0.8433 | 809.567 ± 3.2 kg/m3 | 1217.4 ± 1.8 | –
x1 = 0.8475 | 809.97 ± 3.2 kg/m3 | – | 1.518 ± 0.21
x1 = 0.8864 | 804.22 ± 3.1 kg/m3 | – | 1.42 ± 0.2
x1 = 0.892 | 803.132 ± 3.2 kg/m3 | 1199.7 ± 1.8 | –
x1 = 0.9093 | 800.938 ± 3.2 kg/m3 | 1193.5 ± 1.8 | –
x1 = 0.9207 | 799.51 ± 3.2 kg/m3 | 1189.5 ± 1.8 | –
x1 = 0.929 | 798.49 ± 3.1 kg/m3 | – | 1.341 ± 0.19
x1 = 0.9307 | 798.225 ± 3.2 kg/m3 | 1185.8 ± 1.8 | –
x1 = 0.9398 | 797.133 ± 3.2 kg/m3 | 1182.6 ± 1.8 | –
x1 = 0.9483 | 796.043 ± 3.1 kg/m3 | 1179.4 ± 1.8 | –
x1 = 0.9603 | 794.596 ± 3.1 kg/m3 | 1175.3 ± 1.8 | –
x1 = 0.9702 | 793.374 ± 3.1 kg/m3 | 1171.7 ± 1.8 | –
x1 = 0.9801 | 792.038 ± 3.1 kg/m3 | 1168.5 ± 1.8 | –
x1 = 0.9895 | 791.076 ± 3.1 kg/m3 | 1165 ± 1.8 | –
x1 = 1 | 789.547 ± 3 kg/m3 | 1160.7 ± 1.8 | 1.202 ± 0.17
